Converted amounts (≈) assume the structure as drawn.
Legend:
[1] = Absorption test, concentration of the compounds in serum by HPLC; assay type: in vivo; settings: mouse, mice, 100 mg/kg body weight, oral administration, serum at 1, 3, 5 and 24 hours, read-out: time at which concentration in serum reached a maximum
Method: An absorption test was performed using ketonitrile derivatives of the present invention (Compound Nos. […] and 155) on mice by dosing the derivatives in amounts of 100 mg/kg body weight. One, three, five, and 24 hours after administration of the compounds, blood was harvested and serum was separated therefrom. The concentration of the compounds in serum was determined by HPLC. As a result, Compound No. 155 and Compound No. 101 reached a maximum in concentration after 1 hour and 3 hours of administration, respectively.

in vivo = settings: mouse, oral administration, single dose, suspended in aqueous 0.5% CMC solution, male mice, observed for 14 days
Method: Acute toxicity (LD50) of a ketonitrile derivative of the present invention (Compound No. 4) was tested using male mice (Slc:ddY, 5 weeks old). To groups of each 5 mice, the compounds suspended in aqueous 0.5% CMC solution were forcibly dosed orally at a single time so that the final dosages of 707, 1,000, 1,414, and 2,000 mg/kg were attained. […] As a result, LD50 value under conditions of oral administration was estimated to be higher than 2,000 mg/kg. Thus, the compound was confirmed to be quite non-toxic.
To groups of each 5 mice, the compounds suspended in aqueous 0.5% CMC solution were forcibly dosed orally at a single time so that the final dosages of 500, 1,000, 1,500, and 2,000 mg/kg were attained. […] As a result, the LD50 value was estimated to be higher than 2,000 mg/kg. Thus, the compounds were confirmed to be quite non-toxic.

[2] = test system: Staphylococcus aureus (209-P); experiment: Antibacterial activity (IC), agar as in Example 8 (Example 15, Table 48); assay type: cell-based; settings: 18 h
Procedure, shortened: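 Samples in DMSO, diluted with sterile water, incorporated into Mueller-Hinton agar at 1, 10 and 100 µg/ml final. Bacteria seeded at 10^6 CFU/ml and grown 18 h at 37°C. Inhibition read as turbidity; values reported as IC ranges rather than exact MICs.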

[3] = test system: Streptococcus aureus (TI-1); experiment: Antibacterial activity (IC), agar as in Example 8 (Example 16, Table 49); assay type: cell-based; settings: 18 h
Procedure, shortened: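 Compound at final 100, 10 or 1 µg/ml in Mueller-Hinton agar, inoculated with […] aureus (TI-1) at 10^6 CFU/ml and cultured 37°C for 18 h. Inhibition read from medium turbidity; IC given as 100-10, 10-1 or ≤1 µg/ml ranges from 2-fold dilution.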

[4] = test system: Pasteurella multocida (Kobe-6); experiment: Antibacterial activity (IC), agar as in Example 8 (Example 17, Table 50); assay type: cell-based; settings: 18 h, origin pig
Procedure, shortened: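 Agar dilution on Mueller-Hinton agar with compound at 100, 10 and 1 µg/ml, inoculated at 10^6 CFU/ml with pig-origin strain Kobe-6. After 18 h at 37 °C, IC scored from turbidity and reported as a band (≤100, ≤10, ≤1 µg/ml).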

[5] = test system: methicillin-resistant Staphylococcus aureus (MRSA) from humans; experiment: Antibacterial activity (IC), agar as in Example 8 (Example 19, Table 52); assay type: cell-based; settings: 18 h
Procedure, shortened: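 MRSA human isolate at 10^6 CFU/ml on Mueller-Hinton agar containing compound at 100, 10 or 1 µg/ml, grown 18 h at 37 °C. IC is the lowest tested level that inhibited growth, binned as ≤100, ≤10 or ≤1 µg/ml.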

Enterococcus from fish = experiment: Antibacterial activity (IC), agar as in Example 8, media with 1.5% NaCl, 25°C (Example 20, Tables 53-55); assay type: cell-based; settings: for MIC: Enterococcus Seriolicida SE94-002
Procedure, shortened: (§1)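 Growth inhibition was scored by turbidity after culture at 25°C, with IC bands set from 2-fold-dilution MIC-equivalents. Samples were tested at final 100, 10 and 1 µg/ml in Mueller-Hinton agar with 1.5% NaCl, seeded with 10^6 CFU/ml of the fish isolates.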

Pasteurella from fish = experiment: as above; assay type: cell-based; settings: for MIC: Pasteurella piscicida KP94-02
Procedure, shortened: as §1

[6] = test system: Bordetella bronchiseptica (S1); experiment: Antibacterial activity (IC), agar as in Example 8 (Example 18, Table 51); assay type: cell-based; settings: 18 h
Method: (§2) The antibacterial action was evaluated by the inhibitory concentration (hereinafter abbreviated as IC) at which propagation of the bacteria cultured at 37°C for 18 hours was inhibited. Inhibition was determined by the turbidity of the medium. The expressions "IC≤100", "≤10", and "≤1" indicate that MIC-equivalent values obtained at the succesive […] dilution of the sample are 100-10 µg/ml, 10-1 µg/ml, and not more than 1 µg/ml, respectively. […] (In the subsequent Examples, the same rule applies correspondingly.) Table 39
(§3) A suitable amount of a sample was dissolved in dimethylsulfoxide (DMSO), after which the resulting solution was diluted with the same amount of sterilized distilled water to prepare a bulk sample of 1,000 µg/ml. Separately, a bacterial liquid for the test (methicillin-resistant Staphylococcus aureus (MRSA) isolated from humans) which had been cultured in Mueller-Hinton broth (product of DIFCO) was prepared and inoculated to a Mueller-Hinton agar (product of DIFCO) containing the sample so that the final inoculation amount of 10^6 CFU/ml was achieved. The final concentrations of the samples were 100, 10, and 1 µg/ml.
(§4) After culturing at 37°C for 18 hours, the antibacterial activity was evaluated in terms of IC in a manner similar to that described in Example 4.
(§5) In a manner similar to that described in Example 8, antibacterial activity of the invention compound was determined. The bacterium used for the test was Bordetella bronchiseptica (S1) and Bordetella bronchiseptica (SM2-4).

[7] = test system: Bordetella bronchiseptica (SM2-4); experiment: as above; assay type: cell-based; settings: 18 h
Method: as §2, §3, §4, §5

[8] = Enterococcus Seriolicida KG86050
[9] = Enterococcus Seriolicida MS89060
[10] = Enterococcus Seriolicida MS89064
[11] = Enterococcus Seriolicida MS89066
[12] = Enterococcus Seriolicida MS89068
[13] = Enterococcus Seriolicida SE94-001
[14] = Enterococcus Seriolicida SE94-003
[15] = Enterococcus Seriolicida SE94-004
[16] = Enterococcus Seriolicida SE94-005

Structure (SMILES) | MIC [2] [µg/mL] | MIC [3] [µg/mL] | MIC [4] [µg/mL] | MIC ([5]; MRSA strain 891179) [µg/mL] | MIC ([5]; MRSA strain 891185) [µg/mL] | MIC ([5]; MRSA strain 891187) [µg/mL] | MIC ([5]; MRSA strain 891192) [µg/mL] | MIC ([5]; MRSA strain 900048) [µg/mL] | MIC ([5]; MRSA strain 900056) [µg/mL] | IC (Enterococcus from fish; Enterococcus Seriolicida HI) | IC (Enterococcus from fish; [8]) | IC (Enterococcus from fish; [9]) | IC (Enterococcus from fish; [10]) | IC (Enterococcus from fish; [11]) | IC (Enterococcus from fish; [12]) | IC (Enterococcus from fish; [13]) | MIC (Enterococcus from fish) [µg/mL] | IC (Enterococcus from fish; [14]) | IC (Enterococcus from fish; [15]) | IC (Enterococcus from fish; [16]) | also measured
CC(Oc1cccc(Oc2ncc(C(F)(F)F)cc2Cl)c1)C(=O)C(C#N)c1ccc(Cl)c(Cl)c1 (stereo not shown) [Compound No. 101, 4-[3-(3-chloro-5-trifluoromethyl-2-pyridyloxy)phenoxy]-2-(3,4-dichlorophenyl)-3-oxopentanonitrile] | – | – | – | – | – | – | – | – | – | – | – | – | – | – | – | – | – | – | – | – | Tmax [1]: 3 h
CC(Oc1cccc(Oc2ccc(C(F)(F)F)cc2Cl)c1)C(=O)C(C#N)c1ccc(Cl)c(Cl)c1 (stereo not shown) [Compound No. 103, 4-[3-(2-chloro-4-trifluoromethylphenoxy)phenoxy]-2-(3,4-dichlorophenyl)-3-oxopentanonitrile] | ≤ 1 | ≤ 1 | 1 to 10 (≈ 1.89 to 18.9 µM) | ≤ 1 | ≤ 1 | ≤ 1 | ≤ 1 | ≤ 1 | ≤ 1 | ≤ 1 µg/mL | ≤ 1 µg/mL | ≤ 1 µg/mL | ≤ 1 µg/mL | ≤ 1 µg/mL | ≤ 1 µg/mL | ≤ 1 µg/mL | ≤ 1 | ≤ 1 µg/mL | ≤ 1 µg/mL | ≤ 1 µg/mL | LD50 at 336 h (in vivo): > 2000 mg/kg; MIC (Pasteurella from fish): 1 to 10 µg/mL (≈ 1.89 to 18.9 µM); IC (Pasteurella from fish; Pasteurella piscicida KP94-04): ≤10 (10-1 µg/ml); IC (Pasteurella from fish; Pasteurella piscicida KP94-05): ≤10 (10-1 µg/ml); IC (Pasteurella from fish; Pasteurella piscicida KP94-06): ≤10 (10-1 µg/ml)
Cc1cc(Oc2ccc(C(F)(F)F)cc2Cl)cc(OC(C)C(=O)C(C#N)c2ccc(Cl)c(Cl)c2)c1 (stereo not shown) [Compound No. 112, 4-[3-(2-chloro-4-trifluoromethylphenoxy)-5-methylphenoxy]-2-(3,4-dichlorophenyl)-3-oxopentanonitrile] | ≤ 1 | ≤ 1 | ≤ 1 | ≤ 1 | ≤ 1 | ≤ 1 | ≤ 1 | ≤ 1 | ≤ 1 | ≤10 (10-1 µg/ml) | ≤10 (10-1 µg/ml) | ≤10 (10-1 µg/ml) | ≤10 (10-1 µg/ml) | ≤10 (10-1 µg/ml) | ≤10 (10-1 µg/ml) | ≤10 (10-1 µg/ml) | 1 to 10 (≈ 1.84 to 18.4 µM) | ≤10 (10-1 µg/ml) | ≤10 (10-1 µg/ml) | ≤10 (10-1 µg/ml) | MIC [6]: 10 to 100 µg/mL (≈ 18.4 to 184 µM); MIC [7]: 10 to 100 µg/mL (≈ 18.4 to 184 µM); MIC (Pasteurella from fish): 1 to 10 µg/mL (≈ 1.84 to 18.4 µM)
